Source: patent publication US20250296959A1, “B7-H3 TARGETING PEPTIDES AND CONSTRUCTS THEREOF” (Mariana Oncology Inc., priority 2024, published 2025)
Starred links: 1 amine or outer side, 2 acyl side, 3 side chain; linkers in the order of their positions; H or OH if unused. Positions of bridges follow the written chain, without caps; N, C: chain ends. Non-standard residues stand in square brackets, D forms with d. Residues, ends and D or L forms follow the SMILES beside them. Groups on a side chain read outwards from the residue. ξ: configuration not given here. *: point of attachment. Ala(piperidin-4-yl) = O=C([C@H](CC1CCN([*:3])CC1)N[*:1])[*:2]; Phe(3-CH2NH2) = O=C([C@H](Cc1cccc(CN[*:3])c1)N[*:1])[*:2]; DOTA = O=C(O)CN1CCN(CC(=O)O)CCN(CC(=O)*)CCN(CC(=O)O)CC1; Trp(1-CH2COOH) = N[C@@H](Cc1cn(CC(=O)O)c2ccccc12)C(=O)O; X8 = O=C([C@H](C[C@H]1CC[C@@H](O)CC1)N[*:1])[*:2]; Phe(4-COOH) = N[C@@H](Cc1ccc(C(=O)O)cc1)C(=O)O; Trp(5-F) = N[C@@H](Cc1c[nH]c2ccc(F)cc12)C(=O)O; γGlu = O=C(O)[C@H](CCC(=O)[*:2])N[*:1]; 1Nal = N[C@@H](Cc1cccc2ccccc12)C(=O)O; Ala(4-THP) = N[C@@H](CC1CCOCC1)C(=O)O; Val(3-OH) = CC(C)(O)[C@H](N)C(=O)O; Cha = N[C@@H](CC1CCCCC1)C(=O)O; Tle = CC(C)(C)[C@H](N)C(=O)O; hLeu = CC(C)CC[C@H](N)C(=O)O; NMeS = CN[C@@H](CO)C(=O)O; hSer = N[C@@H](CCO)C(=O)O; Nle = CCCC[C@H](N)C(=O)O; ξF = NC(Cc1ccccc1)C(=O)O; CH2 = C([*:1])[*:2]; NEtG = CCNCC(=O)O; Sar = CNCC(=O)O

Molecular target: T1, human 4lg B7-H3 (Homo sapiens, UniProt Q5ZPR3)
T1 sequence (Q5ZPR3 29-534): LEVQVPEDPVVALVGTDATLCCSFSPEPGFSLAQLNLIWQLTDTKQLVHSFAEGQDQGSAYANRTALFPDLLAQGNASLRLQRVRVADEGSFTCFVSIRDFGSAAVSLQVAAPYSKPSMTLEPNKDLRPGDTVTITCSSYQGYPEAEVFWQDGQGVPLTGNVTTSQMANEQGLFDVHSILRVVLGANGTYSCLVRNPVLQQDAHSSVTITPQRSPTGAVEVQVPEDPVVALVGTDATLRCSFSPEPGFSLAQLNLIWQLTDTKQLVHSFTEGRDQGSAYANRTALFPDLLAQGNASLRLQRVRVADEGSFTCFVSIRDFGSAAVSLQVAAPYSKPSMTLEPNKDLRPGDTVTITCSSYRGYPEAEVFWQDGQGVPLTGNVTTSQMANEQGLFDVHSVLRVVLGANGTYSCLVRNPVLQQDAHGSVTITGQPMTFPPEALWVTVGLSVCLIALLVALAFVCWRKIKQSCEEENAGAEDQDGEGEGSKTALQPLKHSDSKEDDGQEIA
Assay: Affinity determination by surface plasmon resonance (SPR) to 4Ig B7-H3
Details: SPR KD—25° C., 4Ig B7-H3; 25° C. flow cell temperature

SMILES	Kd
CC(=O)N[C@@H](CCC(C)C)C(=O)N[C@@H](Cc1ccc(O)cc1)C(=O)N[C@H]1CSSC[C@@H](C(=O)N[C@@H](Cc2c[nH]c3ccc(F)cc23)C(=O)N[C@@H](Cc2ccccc2)C(=O)N[C@H](C(=O)N[C@H](CCCCNC(=O)CN2CCN(CC(=O)O)CCN(CC(=O)O)CCN(CC(=O)O)CC2)C(N)=O)[C@@H](C)O)NC(=O)[C@H](Cc2ccc(O)cc2)NC(=O)[C@H](C(C)C)NC(=O)[C@H](CC(=O)O)NC(=O)[C@H](CCO)NC(=O)[C@H](CCCCN)NC(=O)CNC(=O)[C@H](C(C)C)NC1=O [compound 199, Ac-hLeu-Y-C-V-G-K-hSer-D-V-Y-C-5FW-F-Thr-dLys(DOTA)-CONH2] (Ac-[hLeu]YCVGK[hSer]DVYC[Trp(5-F)]FT[dK](DOTA)-NH2; disulfide 3-11)	0.001 to 0.01 µM
CC(=O)N[C@@H](CCC(C)C)C(=O)N[C@H](C(=O)N[C@H]1CSSC[C@@H](C(=O)N[C@@H](Cc2c[nH]c3ccc(F)cc23)C(=O)N[C@@H](Cc2ccccc2)C(=O)N(C)[C@@H](CO)C(=O)N[C@H](CCCCNC(=O)CN2CCN(CC(=O)O)CCN(CC(=O)O)CCN(CC(=O)O)CC2)C(N)=O)NC(=O)[C@H](Cc2ccc(O)cc2)NC(=O)[C@H](C(C)C)NC(=O)[C@H](CC(=O)O)NC(=O)[C@H](Cc2ccc(O)cc2)NC(=O)[C@H](CC2CCNCC2)NC(=O)CNC(=O)[C@H](C(C)C)NC1=O)C(C)(C)O [compound 211, Ac-hLeu-hyVal-C-V-G-PipAla-Y-D-V-Y-C-5FW-F-NMeSer-dLys(DOTA)-CONH2] (Ac-[hLeu][Val(3-OH)]CVG[Ala(piperidin-4-yl)]YDVYC[Trp(5-F)]F[NMeS][dK](DOTA)-NH2; disulfide 3-11)	0.01 to 0.1 µM
CC(=O)N[C@@H](CCC(C)C)C(=O)N[C@@H](Cc1ccc(O)cc1)C(=O)N[C@H]1CSSC[C@@H](C(=O)N[C@@H](Cc2c[nH]c3ccccc23)C(=O)N[C@@H](Cc2ccccc2)C(=O)N[C@H](C(=O)N[C@H](CCCCNC(=O)CN2CCN(CC(=O)O)CCN(CC(=O)O)CCN(CC(=O)O)CC2)C(N)=O)[C@@H](C)O)NC(=O)[C@H](Cc2ccc(O)cc2)NC(=O)[C@H](C(C)C)NC(=O)[C@H](CC(=O)O)NC(=O)[C@H](Cc2ccc(C(=O)O)cc2)NC(=O)[C@H](CCCCN)NC(=O)CN(C)C(=O)[C@H](C(C)(C)C)NC1=O [compound 140, Ac-hLeu-Y-C-Tbg-Sar-K-4COOHPhe-D-V-Y-C-W-F-Thr-dLys(DOTA)-CONH2] (Ac-[hLeu]YC[Tle][Sar]K[Phe(4-COOH)]DVYCWFT[dK](DOTA)-NH2; disulfide 3-11)	0.001 to 0.01 µM
CCCC[C@H](NC(C)=O)C(=O)N[C@@H](Cc1ccc(O)cc1)C(=O)N[C@H]1CSSC[C@@H](C(=O)N[C@@H](Cc2c[nH]c3ccccc23)C(=O)N[C@@H](Cc2ccccc2)C(=O)N[C@H](C(=O)N[C@H](CCCCNC(=O)CN2CCN(CC(=O)O)CCN(CC(=O)O)CCN(CC(=O)O)CC2)C(N)=O)[C@@H](C)O)NC(=O)[C@H](Cc2ccc(O)cc2)NC(=O)[C@H](C(C)C)NC(=O)[C@H](CC(=O)O)NC(=O)[C@H](Cc2ccc(O)cc2)NC(=O)[C@H](CCCNC(=N)N)NC(=O)CNC(=O)[C@H](C(C)C)NC1=O [compound 85, Ac-Nle-Y-C-V-G-Arg-Y-D-V-Y-C-W-F-Thr-dLys(DOTA)-CONH2] (Ac-[Nle]YCVGRYDVYCWFT[dK](DOTA)-NH2; disulfide 3-11)	0.001 to 0.01 µM
CCCC[C@H](NC(C)=O)C(=O)N[C@@H](Cc1ccc(O)cc1)C(=O)N[C@H]1CSSC[C@@H](C(=O)N[C@@H](Cc2c[nH]c3ccccc23)C(=O)N[C@@H](Cc2ccccc2)C(N)=O)NC(=O)[C@H](Cc2ccc(O)cc2)NC(=O)[C@H](C(C)C)NC(=O)[C@H](CC(=O)O)NC(=O)[C@H](Cc2ccc(O)cc2)NC(=O)[C@H](CCCCN)NC(=O)CN(CC)C(=O)[C@H](C(C)C)NC1=O [compound 52, Ac-Nle-Y-C-V-NetGly-K-Y-D-V-Y-C-W-F-CONH2] (Ac-[Nle]YCV[NEtG]KYDVYCWF-NH2; disulfide 3-11)	0.01 to 0.1 µM
CC(=O)N[C@@H](CCC(C)C)C(=O)N[C@@H](Cc1ccc(O)cc1)C(=O)N[C@H]1CSSC[C@@H](C(=O)N[C@@H](Cc2cccc3ccccc23)C(=O)NC(Cc2ccccc2)C(=O)N2CCC[C@H]2C(=O)N[C@H](CCCCNC(=O)CC[C@H](NC(=O)CN2CCN(CC(=O)O)CCN(CC(=O)O)CCN(CC(=O)O)CC2)C(=O)O)C(N)=O)NC(=O)[C@H](Cc2ccc(O)cc2)NC(=O)[C@H](C(C)C)NC(=O)[C@H](CC(=O)O)NC(=O)[C@H](CC2CCCCC2)NC(=O)[C@H](CC2CCNCC2)NC(=O)CNC(=O)[C@H](C(C)(C)C)NC1=O (stereo partly drawn) [compound 277, Ac-hLeu-Y-C-Tbg-G-PipAla-CHA-D-V-Y-C-1Nal-F-Pro-dLys(gE-DOTA)-CONH2] (Ac-[hLeu]YC[Tle]G[Ala(piperidin-4-yl)][Cha]DVYC[1Nal][ξF]P[dK]([γGlu-DOTA])-NH2; disulfide 3-11)	0.001 to 0.01 µM
CC(=O)N[C@@H](CCC(C)C)C(=O)N[C@@H](Cc1ccc(O)cc1)C(=O)N[C@H]1CSSC[C@@H](C(=O)N[C@@H](Cc2cccc3ccccc23)C(=O)N[C@@H](Cc2ccccc2)C(=O)N2CCC[C@H]2C(N)=O)NC(=O)[C@H](Cc2ccc(O)cc2)NC(=O)[C@H](C(C)C)NC(=O)[C@H](CC(=O)O)NC(=O)[C@H](Cc2cccc(CNC(=O)CC[C@H](NC(=O)CN3CCN(CC(=O)O)CCN(CC(=O)O)CCN(CC(=O)O)CC3)C(=O)O)c2)NC(=O)[C@H](CCCCN)NC(=O)CNC(=O)[C@H](C(C)(C)C)NC1=O [compound 254, Ac-hLeu-Y-C-Tbg-G-K-MAF(gE-DOTA)-D-V-Y-C-1Nal-F-Pro-CONH2] (Ac-[hLeu]YC[Tle]GK[Phe(3-CH2NH2)]([γGlu-DOTA])DVYC[1Nal]FP-NH2; disulfide 3-11)	0.001 to 0.01 µM
CC(=O)N[C@@H](CCC(C)C)C(=O)N[C@@H](Cc1ccc(O)cc1)C(=O)N[C@H]1CSCSC[C@@H](C(=O)N[C@@H](Cc2c[nH]c3ccc(F)cc23)C(=O)N[C@@H](Cc2ccccc2)C(=O)N[C@H](C(=O)N[C@H](CCCCNC(=O)CN2CCN(CC(=O)O)CCN(CC(=O)O)CCN(CC(=O)O)CC2)C(N)=O)[C@@H](C)O)NC(=O)[C@H](Cc2ccc(O)cc2)NC(=O)[C@H](C(C)C)NC(=O)[C@H](CC(=O)O)NC(=O)[C@H](Cc2ccc(O)cc2)NC(=O)[C@H](CCCCN)NC(=O)CNC(=O)[C@H](C(C)C)NC1=O [compound 189, Ac-hLeu-Y-C(CH2)-V-G-K-Y-D-V-Y-C-5FW-F-Thr-dLys(DOTA)-CONH2] (Ac-[hLeu]YCVGKYDVYC[Trp(5-F)]FT[dK](DOTA)-NH2; linker 3-11 via CH2)	0.1 to 0.3 µM
CC(=O)N[C@@H](CCC(C)C)C(=O)N[C@@H](Cc1ccc(O)cc1)C(=O)N[C@H]1CSSC[C@@H](C(=O)N[C@@H](Cc2c[nH]c3ccccc23)C(=O)N[C@@H](Cc2ccccc2)C(=O)N[C@H](C(=O)N[C@H](CCCCNC(=O)CN2CCN(CC(=O)O)CCN(CC(=O)O)CCN(CC(=O)O)CC2)C(N)=O)[C@@H](C)O)NC(=O)[C@H](Cc2ccc(O)cc2)NC(=O)[C@H](C(C)C)NC(=O)[C@H](CC(=O)O)NC(=O)[C@H](Cc2ccc(O)cc2)NC(=O)[C@H](CC2CCNCC2)NC(=O)CNC(=O)[C@H](C(C)C)NC1=O [compound 154, Ac-hLeu-Y-C-V-G-PipAla-Y-D-V-Y-C-W-F-Thr-dLys(DOTA)-CONH2] (Ac-[hLeu]YCVG[Ala(piperidin-4-yl)]YDVYCWFT[dK](DOTA)-NH2; disulfide 3-11)	< 0.001 µM

Same assay, conditions: SPR KD—37° C., 4Ig B7-H3; 37° C. flow cell temperature

SMILES	Kd
CC(=O)N[C@@H](CCC(C)C)C(=O)N[C@@H](Cc1ccc(O)cc1)C(=O)N[C@H]1CSSC[C@@H](C(=O)N[C@@H](Cc2cn(CC(=O)O)c3ccccc23)C(=O)N[C@@H](Cc2ccccc2)C(=O)N[C@H](C(=O)N[C@H](CCCCNC(=O)CN2CCN(CC(=O)O)CCN(CC(=O)O)CCN(CC(=O)O)CC2)C(=O)O)C(C)(C)O)NC(=O)[C@H](Cc2ccc(O)cc2)NC(=O)[C@H](C(C)C)NC(=O)[C@H](CC(=O)O)NC(=O)[C@H](CC2CCOCC2)NC(=O)[C@H](CCCCN)NC(=O)CNC(=O)[C@H](C(C)(C)C)NC1=O [compound 396, Ac-hLeu-Y-C-Tbg-G-K-ThpA-D-V-Y-C-Trp(CH2COOH)-F-hydroxyVal-dLys(DOTA)-COOH] (Ac-[hLeu]YC[Tle]GK[Ala(4-THP)]DVYC[Trp(1-CH2COOH)]F[Val(3-OH)][dK](DOTA)-OH; disulfide 3-11)	0.1 to 0.3 µM
CC(=O)N[C@@H](CCC(C)C)C(=O)N[C@@H](Cc1ccc(O)cc1)C(=O)N[C@H]1CSSC[C@@H](C(=O)N[C@@H](Cc2c[nH]c3ccc(F)cc23)C(=O)N[C@@H](Cc2ccccc2)C(=O)N[C@H](C(=O)N[C@H](CCC(=O)O)C(N)=O)C(C)(C)O)NC(=O)[C@H](Cc2ccc(O)cc2)NC(=O)[C@H](C(C)C)NC(=O)[C@H](CC(=O)O)NC(=O)[C@H](C[C@H]2CC[C@@H](O)CC2)NC(=O)[C@H](CCCCNC(=O)CN2CCN(CC(=O)O)CCN(CC(=O)O)CCN(CC(=O)O)CC2)NC(=O)CNC(=O)[C@H](C(C)(C)C)NC1=O [compound 424, Ac-hLeu-Y-C-Tbg-G-Lys(DOTA)-4OHCha(pk1)-D-V-Y-C-5FW-F-hydroxyVal-dGlu-CONH2] (Ac-[hLeu]YC[Tle]GK(DOTA)[X8]DVYC[Trp(5-F)]F[Val(3-OH)][dE]-NH2; disulfide 3-11)	0.001 to 0.01 µM
CCCC[C@H](NC(C)=O)C(=O)N[C@@H](Cc1ccc(O)cc1)C(=O)N[C@H]1CSSC[C@@H](C(=O)N[C@@H](Cc2c[nH]c3ccccc23)C(=O)N[C@@H](Cc2ccccc2)C(N)=O)NC(=O)[C@H](Cc2ccc(O)cc2)NC(=O)[C@H](C(C)C)NC(=O)[C@H](CC(=O)O)NC(=O)[C@H](Cc2ccc(O)cc2)NC(=O)[C@H](CCCCN)NC(=O)CNC(=O)[C@H](C(C)C)NC1=O [Cpd #7, Ac-Nle-Y-C-V-G-K-Y-D-V-Y-C-W-F-CONH2] (Ac-[Nle]YCVGKYDVYCWF-NH2; disulfide 3-11)	0.01 to 0.1 µM
